Laboratory results published in patent US11603364B2, “Acyl hydrazone derivative compounds for treating disease” (Alterity Therapeutics Limited, priority 2020, dated 2023).

Legend:
[1] = system: BE(2)-M17 (M17) cells; test: Method I: Measurement of Fe efflux from cells (57Fe-loaded, ICP-MS of media); assay type: cell-based, human; details: M17 cells loaded with 20 μM 57Fe, compound 20 μM, 2 h; for activation at 20 µM: Homo sapiens, read-out: Fe-Efflux (% increase of Fe in media relative to cell media in the absence of the compound)
Method: Method I: Measurement of Fe Efflux from Cells
Compounds of the current invention were assessed for their ability to efflux iron (Fe) from a cell using the following protocol.
The human neuroblastoma line BE(2)-M17 (M17) cell cultures were acquired from Sigma Aldrich (Catalogue #: 95011816). M17 Cells were maintained in Opti-MEM reduced serum media supplemented with 10% fetal bovine serum (Bovogen, SFBSF) and passaged twice weekly. Cells were cultured at 37° C. in the presence of 5% CO2. Culture supplies were sourced from Thermo Fisher unless otherwise stated.
A solution of ^57Fe cold isotope was prepared by dissolving ^57Fe metal (>95% enrichment, Trace Sciences International) in concentrated HCl to give a final concentration of 573 mM. From this master solution, a 10 mM working solution was prepared in sterile water. The working solution was used within two months of preparation.
M17 cells were loaded with iron initially by seeding into 48-well plates at a density of 0.15×10^6 cells per well in 0.5 mL media. After 48 h, old media was discarded. Fresh media was supplemented with 20 μM ^57Fe isotope, from the 10 mM ^57Fe working solution. Cells received 0.2 mL of this ^57Fe enriched media and were returned to the incubator for 20 h. The ability of experimental compounds to efflux iron was determined by the dissolution of compounds in DMSO and diluted in Hanks' Balanced Salt Solution (HBSS) for treatment of M17 cells. After ^57Fe incubation, cells were rinsed twice with HBSS and treated with 0.15 mL trial compound for 2 h at a concentration of 20 μM. All assays included a relevant vehicle (0.4%-0.8% DMSO) as well as a positive control (20 μM). Following the treatment period, 0.1 mL of media was collected from cells and the extracellular ^57Fe content was analysed via inductively coupled mass spectrometry (ICP-MS, Agilent 7700x series instrument).
To perform this protocol the following supplies were purchased from Sigma Aldrich: anhydrous dimethyl sulfoxide (DMSO, Catalogue #: 276855), Hanks' Balanced Salt Solution supplemented with 20 mM HEPES and 4.2 mM Sodium Bicarbonate (HBSS, pH: 7.4, Catalogue #: H1387).
After 2 h the Fe levels in the media were measured and the increase determined as a percentage increase relative to the cell media in the absence of the compound.
Representative data is provided in Table 13 where the % Fe efflux for the specified compounds of the invention lie in the following ranges: A<30%, B 30-100%, C 100-150%; D>150%.

[2] = system: phospho-GSK-3β; test: GSK 3b assay: Zn ionophore-enhanced phosphorylation of GSK-3β (AlphaScreen SureFire Phospho-GSK 3β (Ser9) kit) in SH-SY5Y cells; assay type: cell-based, human; details: test compound 2 μM + ZnCl2 5 μM, 2 h at 37° C.
Method: The phosphorylation of GSK-3β is enhanced when Zn is imported into a cell by a Zn ionophore. This property was measured for the compounds of the current invention and the data presented relative to the know Zn ionophore PBT2 using the following protocol.
The human neuroblastoma SH-SY5Y cells were obtained from Cell bank Australia (Catalogue number: 94030304). SH-SY5Y cell culture was maintained in DMEM/F12+15% FBS inside an incubator at 37° C. in the presence of 5% CO2. The cells were sub-cultured once a week and the media exchanged once during the week. Cells for the assay were plated at a density of 60,000 cells/well.
Stock solutions of the samples were prepared as a 5 mM stock in DMSO and a stock solution of 1 mM ZnCl2/3 mM Glutamic acid was prepared in water. Immediately before use the compounds were diluted 1:10 with water before being added to Locke's buffer in a treatment tube. Samples were subsequently treated with either distilled water or the ZnCl2/Glutamic acid solution to yield a treatment solution which has a final concentration of the test compound at 2 μM+/−ZnCl2 at 5 μM.
The culture media was aspirated from the wells and the media replaced with the treatment solution prepared above. In addition to the relative standard (PBT2+/−ZnCl2), control wells were also included consisting of +/−ZnCl2 at 5 μM with all treatments done in triplicate. The plate was incubated at 37° C. with the treatment solution for 2 h after which time the wells were aspirated and washed with sterile PBS.
Measurement of the change of phospho-GSK-3β was determined using an AlphaScreen® SureFire® Phospho-GSK […] (Ser9) Kit with the cells being processed as per the manufacturer's instructions using an initial incubation of 2 h/24° C. and a final incubation of 16 h/24° C.
The fluorescence was measured on an Enspire plate reader. […] Representative data is presented in Table 12 using the following ranges: A<50%, B 50-<100%, C 100-<150%, D>150%.

SMILES | activation at 20 µM [1] [%] | GSK-Zn (signal as % of the positive standard PBT2+ZnCl2) [2] | Fe-Efflux (% increase of Fe in media relative to cell media in the absence of the compound) [1]
Cc1nc(C)c(C(=O)N/N=C2\CCCc3cccnc32)s1 [Compound 32] | 100 to 150 |  | 
CCOc1ccccc1C(=O)N/N=C1\CCCc2cccnc21 [Compound 4] | 30 to 100 | A (A<50%) | 
COc1ccc(C(=O)N/N=C2\CCCc3cccnc32)cc1OC [Compound 7] | 30 to 100 | A (A<50%) | 
COc1cccc(C(=O)N/N=C(/c2ncccn2)C(C)C)c1 [Compound 50] | < 30 | C (C 100-<150%) | 
O=C(N/N=C1\CCCc2cccnc21)c1ccccc1OCCCN1CCCCC1 [Compound 42] | > 150 |  | 
Cc1nnsc1C(=O)N/N=C1\CCOc2cccnc21 [Compound 172] | 100 to 150 |  | 
O=C(N/N=C1\CCCc2cccnc21)c1ccccc1 [Compound 10] | 30 to 100 | B (B 50-<100%) | 
Cc1nnsc1C(=O)N/N=C1\CCCc2cccnc21 [Compound 23] | > 150 | C (C 100-<150%) | 
O=C(N/N=C/c1cn2ccccc2n1)c1cc2ccccc2s1 [Compound 138] | < 30 |  | 
O=C(N/N=C1\CCCc2cccnc21)c1ccncc1 [Compound 3] | > 150 | A (A<50%) | 
O=C(N/N=C1\CCCc2cccnc21)c1ccccn1 [Compound 2] | 100 to 150 | A (A<50%) | 
C/C(=N\NC(=O)c1cccc(C)c1)c1ncccn1 [Compound 49] | > 150 | B (B 50-<100%) | 
COc1ccccc1C(=O)N/N=C(\C)c1cc(C)ccn1 [Compound 55] | 30 to 100 |  | 
O=C(N/N=C1\CCCc2cccnc21)c1cccnc1 [Compound 1, (E)-N′-(6,7-Dihydroquinolin-8(5H)-ylidene)nicotinohydrazide] | > 150 | A (A<50%) | 
COc1ccccc1C(=O)N/N=C1\CCCc2cccnc21 [Compound 8] | 100 to 150 | A (A<50%) | 
C/C(=N\NC(=O)c1cccc(C)c1)c1nccnc1C [Compound 58] | < 30 |  | 
COC(=O)CN(/N=C(\C)c1ccccn1)C(=O)c1cc2ccccc2s1 [Compound 147, (E)-Methyl 2-(1-(benzo[b]thiophene-2-carbonyl)-2-(1-(pyridin-2-yl)ethylidene) hydrazinyl) Acetate] |  |  | A (A<30%)

SMILES | activation at 20 µM [1] [%] | GSK-Zn (signal as % of the positive standard PBT2+ZnCl2) [2] | Fe-Efflux (% increase of Fe in media relative to cell media in the absence of the compound) [1]
C/C(=N\NC(=O)c1snnc1C)c1nccnc1C [Compound 57] | 100 to 150 |  | 
Cc1cccc(C(=NNC(=O)c2ccccc2C)c2cccc(C)n2)n1 [Compound 122] | < 30 | A (A<50%) | 
Cc1ccc(C(=O)N/N=C/c2nccn2C)cn1 [Compound 117] | < 30 |  | 
O=C(N/N=C1\CCCc2cccnc21)c1ccccc1OCCN1CCCCC1 [Compound 40] | > 150 |  | 
COc1cccc(C(=O)N/N=C2\CCCc3cccnc32)c1 [Compound 6] | < 30 | A (A<50%) | 
O=C(N/N=C1\CCCc2cccnc21)c1ccccc1Cl [Compound 15] | > 150 | D (D>150%) | 
C/C(=N\NC(=O)c1snnc1C)c1ncccn1 [Compound 48] | > 150 | C (C 100-<150%) | 
Cc1cc(C(=O)N/N=C2\CCCc3cccnc32)no1 [Compound 33] | > 150 |  | 
C/C(=N\NC(=O)c1snnc1C)c1ccc2ccccc2n1 [Compound 91] | 30 to 100 | C (C 100-<150%) | 
C/C(=N\NC(=O)c1cc2c(s1)-c1ccccc1OC2)c1nc(C)cs1 [Compound 101] | < 30 |  | 
O=C(N/N=C1\CCOc2cccnc21)c1cccnc1 [Compound 171, (E)-N′-(2,3-dihydro-4H-pyrano[3,2-b]pyridin-4-ylidene)nicotinohydrazide] | < 30 |  | 
CN(C)CCOc1ccccc1C(=O)N/N=C1\CCCc2cccnc21.Cl [Compound 39] | > 150 | A (A<50%) | 
CCOC(=O)C1CCc2cccnc2/C1=N/NC(=O)c1snnc1C (centres unmarked) [Compound 31] | 30 to 100 |  | 
COc1cccc(C(=O)N/N=C(\C)c2ncccn2)c1 [Compound 47] | 30 to 100 | C (C 100-<150%) | 
Cc1nnsc1C(=O)N/N=C(/c1ncccn1)C(C)C [Compound 52] | 30 to 100 | B (B 50-<100%) | 
O=C(N/N=C1\CCOc2cccnc21)c1cccs1 [Compound 178] | 100 to 150 |  | 
COc1ccc(C(=O)N/N=C2\CCCc3cccnc32)cc1 [Compound 9] | 30 to 100 | A (A<50%) | 
